IC50 and inhibition data for 27 compounds are collected here from patent US20250136553A1, “ACYLSULFONAMIDE KAT6A INHIBITORS” (Olema Pharmaceuticals, Inc., priority 2023, published 2025).

This assay addresses human-KAT6A (MYST domain 507-778 aa) (Homo sapiens (Human), UniProt Q92794). The experiment in a line: KAT6A biochemical assay (TR-FRET). Conditions: for pIC50: TR-FRET, histone H4 peptide 200 nM, acetyl-CoA 600 nM, read-out: KAT6A IC50. The text has this:
TR-FRET based methods were used for assaying compounds of the present invention for KAT6A enzyme inhibitory activity. TR-FRET is a homogeneous proximity assay where Europium-labelled anti-acetyl lysine antibody binds to the acetylated substrate labelled with biotin, which in turn binds to streptavidin-labelled APC fluorescence acceptor. Europium can transfer energy to APC in the complex and the interaction of two dye-labelled binding partners is detected by the energy transfer between a donor and an acceptor dye and the subsequent light emission by the acceptor dye. KAT6A transfer an acetyl group from acetyl CoA to lysine amino acids of histones/target proteins. […] The selected compound of the present invention and enzyme are incubated for 30 min on plate shaker at 300 rpm at 25° C. Next, 5 μL of substrate mix containing histone H4 peptide and acetyl-CoA in assay buffer is added to the plate. The final concentrations of H4 peptide and acetyl-CoA are 200 nM and 600 nM, respectively. Following 60 min reaction at 25° C. on plate shaker at 300 rpm, 5 μL of detection mix containing Europium-labelled anti-acetyl antibody and streptavidin-APC is added to the reaction wells. The plate is further incubated at 25° C. on shaker at 300 rpm and is read in TR-FRET mode (Ex:340 nm; Em: 615 nm and 665 nm) on a plate reader to achieve ˜5-7-fold activity. The percent inhibition was calculated from the ratio of the fluorescence (FL) intensities [(F665/F615)×10000) using the formula […]. IC50 values of the compounds were determined by fitting the dose-response data to sigmoidal curve fitting equation using Graph pad prism software V9.
Background: Time-resolved FRET reads energy transfer from a long-lived donor to a nearby acceptor.

Structures are written as SMILES. pIC50: −log10 of the molar value.

Sequence of human-KAT6A (MYST domain 507-778 aa) (Q92794 507-778): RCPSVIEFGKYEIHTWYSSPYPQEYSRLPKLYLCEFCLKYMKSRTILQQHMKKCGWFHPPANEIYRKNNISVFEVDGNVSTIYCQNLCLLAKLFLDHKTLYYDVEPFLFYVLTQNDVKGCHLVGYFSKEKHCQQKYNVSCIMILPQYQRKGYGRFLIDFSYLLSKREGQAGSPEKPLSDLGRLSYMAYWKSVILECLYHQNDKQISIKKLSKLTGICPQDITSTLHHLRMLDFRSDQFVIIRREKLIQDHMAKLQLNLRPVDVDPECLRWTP

In general, pIC50 refers to the negative decadic logarithm of the IC50, by convention in mol/L. As to `COc1cc(C(=O)NS(=O)(=O)c2cc(O)ccc2OC)ccc1Cn1cccn1` [Compound 39, 4-((1H-pyrazol-1-yl)methyl)-N-((5-hydroxy-2-methoxyphenyl)sulfonyl)-3-methoxybenzamide], the pIC50 was 7.62.
On the same count and under the same terms, as for `COc1cccc(OC)c1S(=O)(=O)NC(=O)c1ccc(Cn2cccn2)c(C2CC2)c1F` [Compound 40, 4-((1H-pyrazol-1-yl)methyl)-3-cyclopropyl-N-((2,6-dimethoxyphenyl)sulfonyl)-2-fluorobenzamide], the figure is 7.82.
On to `COc1cccc(OC)c1S(=O)(=O)NC(=O)c1ccc(Cn2cccn2)c(OC)c1OC` [Compound 41, 4-((1H-pyrazol-1-yl)methyl)-N-((2,6-dimethoxyphenyl)sulfonyl)-2,3-dimethoxybenzamide], for which, where the note is “@ 1 μM, reported where IC50 could not be determined, read-out: Percent inhibition at specific concentration (KAT6A)”, the inhibition at 1 µM amounted to 35%.
Take `COc1ccc(S(=O)(=O)NC(=O)c2ccc(Cn3cccn3)c(OC)c2)c(OC)c1` [Compound 42, 4-((1H-pyrazol-1-yl)methyl)-N-((2,4-dimethoxyphenyl)sulfonyl)-3-methoxybenzamide]: the pIC50 is 8.10.
Same read-out and setting: in the case of `COc1cc(OC)c(S(=O)(=O)NC(=O)c2ccc(Cn3cccn3)c(OC)c2)cc1F` [Compound 43, 4-((1H-pyrazol-1-yl)methyl)-N-((5-fluoro-2,4-dimethoxyphenyl)sulfonyl)-3-methoxybenzamide] it was 7.74; in that of `COc1cc(OC)c(S(=O)(=O)NC(=O)c2ccc(Cn3cccn3)c(OC)c2)cc1Cl` [Compound 44, 4-((1H-pyrazol-1-yl)methyl)-N-((5-chloro-2,4-dimethoxyphenyl)sulfonyl)-3-methoxybenzamide], 8.05.
Still for that read-out and setting: as for `COc1cc(OC)c(S(=O)(=O)NC(=O)c2ccc(Cn3cccn3)c(OC)c2)cc1Br` [Compound 45, N-(5-bromo-2,4-dimethoxy-phenyl)sulfonyl-3-methoxy-4-(pyrazol-1-ylmethyl)benzamide], the figure is 8.00.
The same measure, in the same setting: as for `COc1cc(C(=O)NS(=O)(=O)c2c(OC)ccc(Cl)c2OC)ccc1Cn1cccn1` [Compound 46, 4-((1H-pyrazol-1-yl)methyl)-N-((3-chloro-2,6-dimethoxyphenyl)sulfonyl)-3-methoxybenzamide], the figure is 7.92; as for `COc1cc(OC)c(S(=O)(=O)NC(=O)c2ccc(Cn3cccn3)c(OC)c2)c(OC)c1` [Compound 47, 4-((1H-pyrazol-1-yl)methyl)-3-methoxy-N-((2,4,6-trimethoxyphenyl)sulfonyl)benzamide], 8.05.
With `COc1cc(C(=O)NS(=O)(=O)c2c(OC)cccc2OC)c(OC)cc1Cn1cccn1` [Compound 48, 4-((1H-pyrazol-1-yl)methyl)-N-((2,6-dimethoxyphenyl)sulfonyl)-2,5-dimethoxybenzamide], the pIC50 is 7.29.
As for `COc1cccc(OC)c1S(=O)(=O)NC(=O)c1ccc(Cn2cccn2)c(Br)c1F` [Compound 49, 4-((1H-pyrazol-1-yl)methyl)-3-bromo-N-((2,6-dimethoxyphenyl)sulfonyl)-2-fluorobenzamide], the pIC50 was 8.10.
For `COc1cc(C(=O)NS(=O)(=O)c2c(OC)cccc2OC)ccc1COc1ncccn1` [Compound 50, N-((2,6-dimethoxyphenyl)sulfonyl)-3-methoxy-4-((pyrimidin-2-yloxy)methyl)benzamide], the pIC50 is 7.02.
Same read-out and setting: in the case of `COc1cc(C(=O)NS(=O)(=O)c2ccccc2OC(F)F)ccc1Cn1cccn1` [Compound 51, 4-((1H-pyrazol-1-yl)methyl)-N-((2-(difluoromethoxy)phenyl)sulfonyl)-3-methoxybenzamide] it was 7.29.
`COc1cc(C(=O)NS(=O)(=O)c2c(OC)cccc2OC2CC2)ccc1Cn1cccn1` [Compound 52, 4-((1H-pyrazol-1-yl)methyl)-N-((2-cyclopropoxy-6-methoxyphenyl)sulfonyl)-3-methoxybenzamide]: the pIC50 was 8.05.
Still for that read-out and setting: as for `COc1cc(C(=O)NS(=O)(=O)c2ccccc2OCc2ccccn2)ccc1Cn1cccn1` [Compound 53, 4-((1H-pyrazol-1-yl)methyl)-3-methoxy-N-((2-(pyridin-2-ylmethoxy)phenyl)sulfonyl)benzamide], the figure is 7.51.
Turning to `COc1cc(C(=O)NS(=O)(=O)c2cc(C(C)(C)O)ccc2OC)ccc1Cn1cccn1` [Compound 54, 4-((1H-pyrazol-1-yl)methyl)-N-((5-(2-hydroxypropan-2-yl)-2-methoxyphenyl)sulfonyl)-3-methoxybenzamide], the pIC50 is 8.52.
On the same count and under the same terms, as for `COc1cc(C(=O)NS(=O)(=O)c2c(OC)cccc2OC(C)C)ccc1Cn1cccn1` [Compound 55, 4-((1H-pyrazol-1-yl)methyl)-N-((2-isopropoxy-6-methoxyphenyl)sulfonyl)-3-methoxybenzamide], the figure is 7.96; as for `COc1cc(C(=O)NS(=O)(=O)c2c(OC)ccc3c2CCCC3)ccc1Cn1cccn1` [Compound 57, 4-((1H-pyrazol-1-yl)methyl)-3-methoxy-N-((2-methoxy-5,6,7,8-tetrahydronaphthalen-1-yl)sulfonyl)benzamide], 7.96; as for `COc1cc(C(=O)NS(=O)(=O)c2c(OC)cccc2OC)ccc1COc1nccs1` [Compound 58, N-((2,6-dimethoxyphenyl)sulfonyl)-3-methoxy-4-((thiazol-2-yloxy)methyl)benzamide], 6.75.
As to `COc1cc(C(=O)NS(=O)(=O)c2c(OC)cccc2OC)ccc1Oc1nccs1` [Compound 59, N-((2,6-dimethoxyphenyl)sulfonyl)-3-methoxy-4-(thiazol-2-yloxy)benzamide], the pIC50 was 7.48.
Same read-out and setting: as for `COc1cc(C(=O)NS(=O)(=O)c2c(OC)ccc(C)c2OC)ccc1Cn1cccn1` [Compound 60, 4-((1H-pyrazol-1-yl)methyl)-N-((2,6-dimethoxy-3-methylphenyl)sulfonyl)-3-methoxybenzamide], the figure is 8.10.
With `COc1cc(C(=O)NS(=O)(=O)c2c(OC)ccc(C3CC3)c2OC)ccc1Cn1cccn1` [Compound 61, 4-((1H-pyrazol-1-yl)methyl)-N-((3-cyclopropyl-2,6-dimethoxyphenyl)sulfonyl)-3-methoxybenzamide], the pIC50 is 8.22.
Same read-out and setting: in the case of `CCc1ccc(OC)c(S(=O)(=O)NC(=O)c2ccc(Cn3cccn3)c(OC)c2)c1OC` [Compound 66, 4-((1H-pyrazol-1-yl)methyl)-N-((3-ethyl-2,6-dimethoxyphenyl)sulfonyl)-3-methoxybenzamide] it was 7.89; in that of `CCOc1cccc(OC)c1S(=O)(=O)NC(=O)c1ccc(Cn2cccn2)c(OC)c1` [Compound 67, 4-((1H-pyrazol-1-yl)methyl)-N-((2-ethoxy-6-methoxyphenyl)sulfonyl)-3-methoxybenzamide], 7.96.
The same measure, in the same setting: in the case of `COc1cc(C(=O)NS(=O)(=O)c2c(OC)cccc2OCC(F)(F)F)ccc1Cn1cccn1` [Compound 68, 4-((1H-pyrazol-1-yl)methyl)-3-methoxy-N-((2-methoxy-6-(2,2,2-trifluoroethoxy)phenyl)sulfonyl)benzamide] it was 7.64; in that of `COc1cccc(OC)c1S(=O)(=O)NC(=O)c1ccc(Cn2cccn2)c(OC)c1F` [Compound 69, 4-((1H-pyrazol-1-yl)methyl)-N-((2,6-dimethoxyphenyl)sulfonyl)-2-fluoro-3-methoxybenzamide], 6.94; in that of `COc1cc(C(=O)NS(=N)(=O)c2c(OC)cccc2OC)ccc1Cn1cccn1` (stereo not drawn) [Compound 71, 4-((1H-pyrazol-1-yl)methyl)-N-(2,6-dimethoxyphenylsulfonimidoyl)-3-methoxybenzamide], 7.47.
